Consider two compounds from US12201640B2, “19-nor C3,3-disubstituted C21-n-pyrazolyl steroids and methods of use thereof” (Sage Therapeutics, Inc., priority 2013, dated 2025).

Some results are limits rather than exact numbers.

The target of one assay is T1, GABAA receptor α1β2γ2 (Homo sapiens, UniProt P14867+P47870).
T1 construct: expressed in transfected cells
Kind of assay: Patch clamp electrophysiology, Qpatch in Ltk cells. It counts as cell-based. The settings on record: 10 μM test article, GABA EC20 2 μM, read-out: GABA (α1β2γ2) Qpatch in Ltk, % efficacy at 10 μM. Here is the method:
(§1) Patch Clamp Electrophysiology of Recombinant α1β2γ2 and α4β3δ GABAA Receptors
(§2) Cellular electrophysiology is used to measure the pharmacological properties of our GABAA receptor modulators in heterologous cell systems. Each compound is tested for its ability to affect GABA mediated currents at a submaximal agonist dose (GABA EC20=2 μM). LTK cells are stably transfected with the α1β2γ2 subunits of the GABA receptor and CHO cells are transiently transfected with the α4β3δ subunits via the Lipofecatamine method. Cells were passaged at a confluence of about 50-80% and then seeded onto 35 mm sterile culture dishes containing 2 ml culture complete medium without antibiotics or antimycotics. Confluent clusters of cells are electrically coupled (Pritchett et al., Science, 1988, 242, 1306-1308.). Because responses in distant cells are not adequately voltage clamped and because of uncertainties about the extent of coupling (Verdoorn et al., Neuron 1990, 4, 919-928.), cells were cultivated at a density that enables the recording of single cells (without visible connections to other cells).
(§3) Whole cell currents were measured with HEKA EPC-10 amplifiers using PatchMaster software or by using the high throughput QPatch platform (Sophion). Bath solution for all experiments contained (in mM): NaCl 137 mM, KCl 4 mM, CaCl2 1.8 mM, MgCl2 1 mM, HEPES 10 mM, D-Glucose 10 mM, pH (NaOH) 7.4. In some cases 0.005% cremophor was also added. Intracellular (pipette) solution contained: KCl 130 mM, MgCl2 1 mM, Mg-ATP 5 mM, HEPES 10 mM, EGTA 5 mM, pH 7.2. During experiments, cells and solutions were maintained at room temperature (19° C.-30° C.). For manual patch clamp recordings, cell culture dishes were placed on the dish holder of the microscope and continuously perfused (1 ml/min) with bath solution. After formation of a Gigaohm seal between the patch electrodes and the cell (pipette resistance range: 2.5 MΩ-6.0 MΩ; seal resistance range: >1 GΩ) the cell membrane across the pipette tip was ruptured to assure electrical access to the cell interior (whole-cell patch-configuration). For experiments using the QPatch system, cells were transferred as suspension to the QPatch system in the bath solution and automated whole cell recordings were performed.
(§4) Cells were voltage clamped at a holding potential of −80 mV. For the analysis of test articles, GABA receptors were stimulated by 2 μM GABA after sequential pre-incubation of increasing concentrations of the test article. Pre-incubation duration was 30 s and the duration of the GABA stimulus was 2 s. Test articles were dissolved in DMSO to form stock solutions (10 mM). Test articles were diluted to 0.01, 0.1, 1, and 10 μM in bath solution. All concentrations of test articles were tested on each cell. The relative percentage potentiation was defined as the peak amplitude in response to GABA EC20 in the presence of the test article divided by the peak amplitude in response to GABA EC20 alone, multiplied by 100.
In general terms: In patch-clamp work, channel activity is measured electrically.

The test system of a further assay is PTZ-treated mice. Kind of assay: Acute PTZ (pentylenetetrazol-induced seizure) assay in mice. It counts as in vivo, mouse. The note with it: PO, latency to tonic seizures. As to the method: The anticonvulsant effect of test compounds were assessed in the pentylenetetazol-induced seizure assay in mice similar to methods described in Giardina & Gasior (2009) Curr Protoc Pharmacol., Chapter 5. Male CD-1 mice were housed in groups of five under controlled conditions (temperature of 22±2° C. and 12:12 light-dark cycle, lights on at 8:00 am) and water and food were available ad libitum. The mice were housed for 1 week prior to behavioral testing, at which time they weighed 25-35 g. Pentylenetetrazol (PTZ, Sigma) was dissolved in sterile 0.9% saline at a concentration of 12 mg/mL concentration for subcutaneous administration. Test compounds were formulated and administered via oral gavage or intraperitoneal injection at a predetermined time-point (typically 30 or 60 minutes) prior to PTZ injection. All solutions were made fresh and were given in a volume of 10 ml/kg body weight.
Mice were acclimated to the test room for at least 30 min before compound administration. Mice were randomized into at least four test groups (vehicle and at least three doses of the test compound) with 10 mice per group. […] Following the drug pretreatment time the mice were injected s.c. with PTZ (120 mg/kg). Immediately following the PTZ injection, mice were individually placed into observation chambers (25×15×15 cm) and a three-channel timer was started. Each mouse was continuously observed for 30 min and the following behaviors were recorded by observers blinded to the treatments: 1) latency to clonic convulsions that persist for 3 sec and followed by an absence of righting reflex 2) latency to tonic convulsions, characterized by the rigid extension of all four limbs that exceeded a 90 degree angle with the body 3) latency to death 4) number of clonic and tonic convulsions. Data are presented as mean±S.E.M and one-way analysis of variance with Dunnett's or Bonferroni's post-hoc test was used to detect significant differences in latency and number between the vehicle and dose group. p values<0.05 were regarded as statistically significant.

The target of the next assay is T2, GABAA receptor α4β3δ (Homo sapiens, UniProt P28472+P48169).
T2 construct: expressed in transfected cells; host or cells: CHO cells (transient, lipofection)
T2 sequence (P48169 36-554): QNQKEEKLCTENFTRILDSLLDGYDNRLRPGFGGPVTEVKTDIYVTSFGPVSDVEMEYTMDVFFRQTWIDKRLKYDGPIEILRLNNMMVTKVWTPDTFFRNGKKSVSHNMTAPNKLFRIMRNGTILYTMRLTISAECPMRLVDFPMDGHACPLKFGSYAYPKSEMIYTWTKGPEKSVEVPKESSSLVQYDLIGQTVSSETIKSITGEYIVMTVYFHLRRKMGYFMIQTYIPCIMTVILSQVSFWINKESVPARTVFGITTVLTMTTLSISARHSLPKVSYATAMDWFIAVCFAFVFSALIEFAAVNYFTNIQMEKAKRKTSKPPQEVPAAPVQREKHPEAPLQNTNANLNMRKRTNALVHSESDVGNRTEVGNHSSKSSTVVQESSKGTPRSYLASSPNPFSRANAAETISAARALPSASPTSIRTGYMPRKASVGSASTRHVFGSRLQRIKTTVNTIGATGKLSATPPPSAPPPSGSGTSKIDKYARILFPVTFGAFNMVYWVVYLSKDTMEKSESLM
T2 sequence (P28472 26-473): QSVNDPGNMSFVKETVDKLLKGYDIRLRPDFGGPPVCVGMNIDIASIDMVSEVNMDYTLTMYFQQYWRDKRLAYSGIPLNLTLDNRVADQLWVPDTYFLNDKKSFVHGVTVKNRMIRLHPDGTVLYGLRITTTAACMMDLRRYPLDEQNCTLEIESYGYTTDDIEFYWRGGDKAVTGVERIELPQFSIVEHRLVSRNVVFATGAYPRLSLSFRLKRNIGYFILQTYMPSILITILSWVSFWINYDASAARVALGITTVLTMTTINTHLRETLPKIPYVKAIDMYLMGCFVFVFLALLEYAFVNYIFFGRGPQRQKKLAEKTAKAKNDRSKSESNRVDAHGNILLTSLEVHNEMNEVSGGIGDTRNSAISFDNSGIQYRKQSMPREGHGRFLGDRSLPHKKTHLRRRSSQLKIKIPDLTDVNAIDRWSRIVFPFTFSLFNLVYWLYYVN
T2 sequence (O14764 25-452 partner): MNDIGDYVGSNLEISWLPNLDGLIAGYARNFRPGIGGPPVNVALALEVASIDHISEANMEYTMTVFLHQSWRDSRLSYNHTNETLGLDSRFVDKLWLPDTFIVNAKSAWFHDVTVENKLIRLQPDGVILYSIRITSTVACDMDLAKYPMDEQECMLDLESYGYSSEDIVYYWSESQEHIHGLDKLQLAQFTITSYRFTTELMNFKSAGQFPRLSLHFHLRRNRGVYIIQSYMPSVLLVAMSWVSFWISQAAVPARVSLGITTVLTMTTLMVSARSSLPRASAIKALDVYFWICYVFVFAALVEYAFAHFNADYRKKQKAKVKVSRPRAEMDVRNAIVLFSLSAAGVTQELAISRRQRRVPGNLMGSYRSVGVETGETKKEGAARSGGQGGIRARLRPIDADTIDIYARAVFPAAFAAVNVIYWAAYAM
In words: Patch clamp electrophysiology, manual patch in CHO cells. The format is cell-based. The settings on record: 10 μM test article, GABA EC20 2 μM, read-out: GABA (α4β3δ) Manual patch in CHO, % efficacy at 10 μM. As to the method:
as §1, §2, §3, §4

A further assay has as its system male Sprague Dawley rats. Kind of assay: Loss of righting reflex in rats. The format is in vivo. The settings on record: Rat IV, 5 mpk. Here is the method: Loss of Righting Reflex in Rats
The plasma pharmacokinetics and a qualitative assessment of sedation were obtained in male
Sprague Dawley rats according to the following procedure. Rats were dosed by intravenous bolus dose (60 seconds) via the foot dorsal vein at doses ranging from 5 to 15 mg/kg in an appropriate vehicle. In order to assess sedation, rats were gently restrained by hand to a lateral position for dose administration. […] If the animal was unable to return to an upright position, the time was recorded as the onset of loss of righting reflex (LRR). […] Sluggish or incomplete righting twice consecutively within a 30 second interval qualifies as a loss of righting reflex. After onset of LRR, animals were assessed every 5 minutes in the same manner. Recovery of righting reflex is defined as the ability of a rat to right itself completely within 20 seconds of being placed in dorsal recumbency. The duration of LRR is defined as the time interval between LRR and the return of righting reflex.

T1 sequence (P14867 28-456): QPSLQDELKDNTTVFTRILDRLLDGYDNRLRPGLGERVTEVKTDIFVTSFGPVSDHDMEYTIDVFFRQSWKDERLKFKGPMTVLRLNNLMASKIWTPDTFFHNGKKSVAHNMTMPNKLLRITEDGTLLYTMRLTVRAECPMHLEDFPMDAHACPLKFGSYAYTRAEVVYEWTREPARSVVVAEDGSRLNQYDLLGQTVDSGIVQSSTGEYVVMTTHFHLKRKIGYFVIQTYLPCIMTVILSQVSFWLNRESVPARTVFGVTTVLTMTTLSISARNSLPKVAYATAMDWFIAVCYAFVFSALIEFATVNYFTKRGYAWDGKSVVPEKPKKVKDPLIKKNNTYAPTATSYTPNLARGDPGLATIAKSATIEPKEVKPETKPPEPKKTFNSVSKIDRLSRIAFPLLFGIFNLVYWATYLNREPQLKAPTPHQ
T1 sequence (P47870 25-512 limits assumed): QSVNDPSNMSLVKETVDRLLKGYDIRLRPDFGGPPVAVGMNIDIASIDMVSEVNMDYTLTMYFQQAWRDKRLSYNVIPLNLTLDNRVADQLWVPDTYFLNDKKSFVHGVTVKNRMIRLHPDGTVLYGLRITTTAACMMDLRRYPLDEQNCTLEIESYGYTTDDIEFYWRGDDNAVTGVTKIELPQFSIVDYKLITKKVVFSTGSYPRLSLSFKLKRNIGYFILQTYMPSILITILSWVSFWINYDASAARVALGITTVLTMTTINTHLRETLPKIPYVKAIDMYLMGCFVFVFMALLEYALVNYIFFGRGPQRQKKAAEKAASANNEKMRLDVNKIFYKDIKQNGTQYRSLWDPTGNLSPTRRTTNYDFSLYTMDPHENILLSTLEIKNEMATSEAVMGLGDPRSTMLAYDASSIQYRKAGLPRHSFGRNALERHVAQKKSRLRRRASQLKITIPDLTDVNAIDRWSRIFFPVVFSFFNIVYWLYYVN
T1 sequence (P18507 40-475 partner): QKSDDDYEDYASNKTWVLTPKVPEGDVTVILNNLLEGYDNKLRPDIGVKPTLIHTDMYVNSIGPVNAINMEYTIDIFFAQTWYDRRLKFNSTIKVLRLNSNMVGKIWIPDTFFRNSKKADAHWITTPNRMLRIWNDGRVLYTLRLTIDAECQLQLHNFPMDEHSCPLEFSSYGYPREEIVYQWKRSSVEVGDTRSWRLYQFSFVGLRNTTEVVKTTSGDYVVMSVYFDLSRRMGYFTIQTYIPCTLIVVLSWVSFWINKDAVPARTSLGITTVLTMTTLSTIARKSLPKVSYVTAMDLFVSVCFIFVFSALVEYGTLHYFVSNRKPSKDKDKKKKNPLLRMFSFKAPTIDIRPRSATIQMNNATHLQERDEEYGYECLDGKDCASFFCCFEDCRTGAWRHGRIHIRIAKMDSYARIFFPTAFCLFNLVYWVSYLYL

For `C[C@@]1(O)CC[C@H]2[C@H](CC[C@@H]3[C@@H]2CC[C@]2(C)[C@@H](C(=O)Cn4cc(S(C)(=O)=O)cn4)CC[C@@H]32)C1` [SA-17], the Emax at 10 µM on GABAA receptor α1β2γ2 and at GABAA receptor α4β3δ was 100 to 500% throughout. Besides, the “Anticonvulsive Effect Dose (minimal effective anticonvulsant dose)” value with PTZ-treated mice is recorded as “A (PO) (<3 mpk)”.

Consider `C[C@@]1(O)CC[C@H]2[C@H](CC[C@@H]3[C@@H]2CC[C@]2(C)[C@@H](C(=O)Cn4ccc(C#N)n4)CC[C@@H]32)C1` [SA-22], for which the Emax at 10 µM is more than 500% at GABAA receptor α1β2γ2 and 100 to 500% on GABAA receptor α4β3δ. Further, the “Anticonvulsive Effect Dose (minimal effective anticonvulsant dose)” value in the assay with PTZ-treated mice was “A (PO) (<3 mpk)”. In addition, the “Duration of Rat LRR” value with male Sprague Dawley rats is on record as “B (15-60 min)”.
